Structures can show the parent of a compound that is named as a salt.
Key:
[1] = target: T1, recombinant human arginase 1 (hARG1) (Homo sapiens, UniProt P05089); experiment: Human arginase inhibition assay (colorimetric urea detection), arginase 1; type: biochemical; conditions: IC50 class; hydrochloride salts; 1 h at 37° C., pH 7.4, 10 mM L-arginine, 200 μM MnCl2; read-out: Activity Class (ARG I)
T1 construct: made in house; host or cells: E. coli
T1 sequence (P05089 1-322): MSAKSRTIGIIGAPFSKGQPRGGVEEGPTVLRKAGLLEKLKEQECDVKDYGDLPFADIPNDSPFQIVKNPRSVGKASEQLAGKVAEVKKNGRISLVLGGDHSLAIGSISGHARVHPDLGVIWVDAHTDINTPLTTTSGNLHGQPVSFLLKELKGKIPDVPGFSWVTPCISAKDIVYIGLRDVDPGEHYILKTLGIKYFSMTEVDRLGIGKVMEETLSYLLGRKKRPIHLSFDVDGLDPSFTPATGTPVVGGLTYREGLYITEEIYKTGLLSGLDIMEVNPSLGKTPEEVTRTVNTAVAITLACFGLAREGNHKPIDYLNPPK
Description: (§1) Human Arginase Inhibition Assay
(§2) The inhibitory activities of the compounds of the invention were assessed using recombinant human arginases 1 and 2. Both enzymes were biosynthesized using a prokaryotic expression system (E. coli) and purified by fast protein liquid chromatography (FPLC). The compounds were screened in 96-well plates at the total reaction volume of 100 μL. Briefly, recombinant enzymes were incubated with the tested compounds for 1 h at 37° C. in the reaction buffer (100 mM sodium phosphate buffer, 130 mM NaCl, 1 mg/mL BSA, pH 7.4) containing substrate (L-arginine hydrochloride, 10 mM for hARG1 and 20 mM for hARG2) and cofactor (200 μM MnCl2). The assay is based on the detection of urea, which is generated during the conversion of L-arginine into L-omithine catalyzed by ARG1 or ARG2 (Baggio et al. J Pharmacol. Exp. Ther. 1999, 290, 1409-1416). The colorimetrically detectable product was developed by adding a mixture of reagent A (4 mM oPA, 50 mM boric acid, 1 M sulfuric acid, 0.03% Brij-35) and reagent B (4 mM NED, 50 mM boric acid, 1 M sulfuric acid, 0.03% Brij-35) in equal proportions. The absorbance for each well was measured at 515 nm and the enzyme inhibition was calculated. The urea production in the absence of any tested compound was considered as maximal enzyme activity. The absorbance at the absence of arginase (background) was subtracted from all the values. The normalized values were analyzed using GraphPad Prism 7.0 software by plotting inhibition curves and determining the IC50 values.
(§3) The inhibitory activity classes of the hydrochloride salts of the exemplary compounds according to the invention are presented in Table 1

[2] = target: T2, recombinant human arginase 2 (hARG2) (Homo sapiens, UniProt P78540); experiment: Human arginase inhibition assay (colorimetric urea detection), arginase 2; type: biochemical; conditions: IC50 class; hydrochloride salts; 1 h at 37° C., pH 7.4, 20 mM L-arginine, 200 μM MnCl2; read-out: Activity Class (ARG II)
T2 construct: made in house; host or cells: E. coli
T2 sequence (P78540 23-354): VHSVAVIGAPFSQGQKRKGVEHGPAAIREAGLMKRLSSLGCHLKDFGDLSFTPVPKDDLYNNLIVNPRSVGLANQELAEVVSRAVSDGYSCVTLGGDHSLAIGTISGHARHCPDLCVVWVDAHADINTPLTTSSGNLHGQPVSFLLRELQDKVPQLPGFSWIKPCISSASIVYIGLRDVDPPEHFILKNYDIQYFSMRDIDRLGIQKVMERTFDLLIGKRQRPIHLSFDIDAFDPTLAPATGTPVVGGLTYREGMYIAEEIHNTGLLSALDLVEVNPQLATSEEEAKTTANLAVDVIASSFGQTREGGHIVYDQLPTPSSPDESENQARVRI
Description: as §1, §2, §3

SMILES	IC50 [1]	IC50 [2]
CC(C)(O)[C@H](N)C(=O)NC[C@@H]1CC[C@@H](CCB(O)O)C[C@]1(N)C(=O)O [Example 16, (1R,2S,5R)-1-Amino-2-(((S)-2-amino-3-hydroxy-3-methylbutanamido)methyl)-5-(2-boronoethyl)cyclohexane-1-carboxylic acid dihydrochloride]	0.1 to 0.199 µM	> 0.3 µM
CC(C)[C@@](C)(N)C(=O)NC[C@@H]1CC[C@@H](CCB(O)O)C[C@]1(N)C(=O)O [Example 21, (1R,2S,5R)-1-Amino-2-((2-amino-2,3-dimethylbutanamido)methyl)-5-(2-boronoethyl)cyclohexane-1-carboxylic acid dihydrochloride]	0.2 to 0.299 µM	> 0.3 µM
CN[C@]1(C(=O)O)C[C@H](CCB(O)O)CC[C@H]1CNC(=O)[C@H](C)N [Example 36, (1R,2S,5R)-2-(((S)-2-Aminopropanamido)methyl)-5-(2-boronoethyl)-1-(methylamino)cyclohexane-1-carboxylic acid dihydrochloride]	> 0.3 µM	> 0.3 µM
CC(C)[C@@H](N)C(=O)NC[C@@H]1CC[C@@H](CCB(O)O)C[C@]1(N)C(=O)O [Example 23, (1R,2S,5R)-1-Amino-2-(((R)-2-amino-3-methylbutanamido)methyl)-5-(2-boronoethyl)cyclohexane-1-carboxylic acid dihydrochloride]	0.001 to 0.099 µM	> 0.3 µM
C[C@@H](N)C(=O)NC[C@@H]1CC[C@@H](CCB(O)O)C[C@]1(N)C(=O)O [Example 22, (1R,2S,5R)-1-Amino-2-(((R)-2-aminopropanamido)methyl)-5-(2-boronoethyl)cyclohexane-1-carboxylic acid dihydrochloride]	0.001 to 0.099 µM	> 0.3 µM
CNCC(=O)NC[C@@H]1CC[C@@H](CCB(O)O)C[C@]1(N)C(=O)O [Example 31, (1R,2S,5R)-1-Amino-5-(2-boronoethyl)-2-((2-(methylamino)acetamido)methyl)cyclohexane-1-carboxylic acid dihydrochloride]	0.1 to 0.199 µM	> 0.3 µM
CC(C)[C@H](N)C(=O)NC[C@H]1CC[C@@H](CCB(O)O)C[C@]1(N)C(=O)O [Example 34, (1R,2R,5R)-1-Amino-2-(((S)-2-amino-3-methylbutanamido)methyl)-5-(2-boronoethyl)cyclohexane-1-carboxylic acid dihydrochloride]	> 0.3 µM	> 0.3 µM
N[C@@H](Cc1ccc(O)cc1)C(=O)NC[C@@H]1CC[C@@H](CCB(O)O)C[C@]1(N)C(=O)O [Example 14, (1R,2S,5R)-1-Amino-2-(((S)-2-amino-3-(4-hydroxyphenyl)propanamido)methyl)-5-(2-boronoethyl)cyclohexane-1-carboxylic acid dihydrochloride]	0.2 to 0.299 µM	> 0.3 µM
NC(=O)CC[C@H](N)C(=O)NC[C@@H]1CC[C@@H](CCB(O)O)C[C@]1(N)C(=O)O [Example 28, (1R,2S,5R)-1-Amino-5-(2-boronoethyl)-2-(((S)-2,5-diamino-5-oxopentanamido)methyl)cyclohexane-1-carboxylic acid dihydrochloride]	0.1 to 0.199 µM	> 0.3 µM
C[C@H](N)C(=O)NC[C@@H]1CC[C@@H](CCB(O)O)C[C@]1(N)C(=O)O [Example 1, (1R,2S,5R)-1-Amino-2-(((S)-2-aminopropanamido)methyl)-5-(2-boronoethyl)cyclohexane-1-carboxylic acid dihydrochloride]	0.1 to 0.199 µM	> 0.3 µM
CC(C)[C@H](N)C(=O)NC[C@@H]1CC[C@@H](CCB2OC(=O)CC(CC(=O)O)(C(=O)O)O2)C[C@]1(N)C(=O)O (stereo partly drawn) [Example 33, 2-(2-((1R,3R,4S)-3-Amino-4-(((S)-2-amino-3-methylbutanamido)methyl)-3-carboxycyclohexyl)ethyl)-4-(carboxymethyl)-6-oxo-1,3,2-dioxaborinane-4-carboxylic acid dihydrochloride]	0.1 to 0.199 µM	> 0.3 µM
NC(=O)C[C@H](N)C(=O)NC[C@@H]1CC[C@@H](CCB(O)O)C[C@]1(N)C(=O)O [Example 15, (1R,2S,5R)-1-Amino-5-(2-boronoethyl)-2-(((S)-2,4-diamino-4-oxobutanamido)methyl)cyclohexane-1-carboxylic acid dihydrochloride]	0.2 to 0.299 µM	> 0.3 µM

Further lines, results first:

IC50 [1]	IC50 [2]	SMILES
0.001 to 0.099 µM	> 0.3 µM	CC(C)[C@H](N)C(=O)N(C)C[C@@H]1CC[C@@H](CCB(O)O)C[C@]1(N)C(=O)O [Example 25, (1R,2S,5R)-1-Amino-2-(((S)-2-amino-N,3-dimethylbutanamido)methyl)-5-(2-boronoethyl)cyclohexane-1-carboxylic acid dihydrochloride]
0.001 to 0.099 µM	> 0.3 µM	CCC[C@H](N)C(=O)NC[C@@H]1CC[C@@H](CCB(O)O)C[C@]1(N)C(=O)O [Example 20, (1R,2S,5R)-1-Amino-2-(((S)-2-aminopentanamido)methyl)-5-(2-boronoethyl)cyclohexane-1-carboxylic acid dihydrochloride]
0.1 to 0.199 µM	> 0.3 µM	N[C@@H](CO)C(=O)NC[C@@H]1CC[C@@H](CCB(O)O)C[C@]1(N)C(=O)O [Example 7, (1R,2S,5R)-1-Amino-2-(((S)-2-amino-3-hydroxypropanamido)methyl)-5-(2-boronoethyl)cyclohexane-1-carboxylic acid dihydrochloride]
0.001 to 0.099 µM	0.1 to 0.199 µM	N[C@H](C(=O)NC[C@@H]1CC[C@@H](CCB(O)O)C[C@]1(N)C(=O)O)C1CCCC1 [Example 11, (1R,2S,5R)-1-Amino-2-(((S)-2-amino-2-cyclopentylacetamido)methyl)-5-(2-boronoethyl)cyclohexane-1-carboxylic acid dihydrochloride]
0.1 to 0.199 µM	> 0.3 µM	C[C@@H](O)[C@H](N)C(=O)NC[C@@H]1CC[C@@H](CCB(O)O)C[C@]1(N)C(=O)O [Example 19, (1R,2S,5R)-1-Amino-2-(((2S,3R)-2-amino-3-hydroxybutanamido)methyl)-5-(2-boronoethyl)cyclohexane-1-carboxylic acid dihydrochloride]
0.1 to 0.199 µM	> 0.3 µM	Cn1cc(C[C@@H](N)C(=O)NC[C@@H]2CC[C@@H](CCB(O)O)C[C@]2(N)C(=O)O)c2ccccc21 [Example 26, (1R,2S,5R)-1-Amino-2-(((R)-2-amino-3-(1-methyl-1H-indol-3-yl)propanamido)methyl)-5-(2-boronoethyl)cyclohexane-1-carboxylic acid dihydrochloride]
0.1 to 0.199 µM	> 0.3 µM	C[C@H](N)C(=O)N(C)C[C@@H]1CC[C@@H](CCB(O)O)C[C@]1(N)C(=O)O [Example 24, (1R,2S,5R)-1-Amino-2-(((S)-2-amino-N-methylpropanamido)methyl)-5-(2-boronoethyl)cyclohexane-1-carboxylic acid dihydrochloride]
0.1 to 0.199 µM	> 0.3 µM	N[C@@H](Cc1c[nH]c2ccccc12)C(=O)NC[C@@H]1CC[C@@H](CCB(O)O)C[C@]1(N)C(=O)O [Example 18, (1R,2S,5R)-1-Amino-2-(((S)-2-amino-3-(1H-indol-3-yl)propanamido)methyl)-5-(2-boronoethyl)cyclohexane-1-carboxylic acid dihydrochloride]
0.2 to 0.299 µM	> 0.3 µM	N[C@@H](CS)C(=O)NC[C@@H]1CC[C@@H](CCB(O)O)C[C@]1(N)C(=O)O [Example 27, (1R,2S,5R)-1-Amino-2-(((R)-2-amino-3-mercaptopropanamido)methyl)-5-(2-boronoethyl)cyclohexane-1-carboxylic acid dihydrochloride]

— patent US12612420B2, “Arginase inhibitors and methods of use thereof” (Molecure S.A., priority 2020, dated 2026)
